No end group written: not given here.
How the values were obtained:
[1] = test system: POMC neurons; assay: Whole cell recordings from fluorescent POMC-EGFP neurons in ARC slices (Example 2); assay type: cell-based, mouse
[2] = Intracerebroventricular GLP-1 in rats; assay type: in vivo, rat
Description: This effect is blocked by the specific GLP-1 receptor antagonist, exendin 9-39. GLP-1 receptors are found in the brainstem, arcuate nucleus and PVN. Following ICV GLP-1 administration, c-fos is expressed in the arcuate nucleus and PVN.

[3] = Co-administration of PYY3-36 and GLP-1 by intravenous infusion in humans, free buffet meal; assay type: in vivo, human
Description: 10 healthy volunteers (4 men and 6 women) having a mean age of 24.7 (±0.8) years and a mean BMI of 22.7 (±0.6) kg/m^2 were recruited. The volunteers were asked to fast and to drink only water from 9 pm on the night preceding all study days. Each volunteer attended for four study days. The volunteers arrived at 9.30 am and the venflons were inserted.
The study was double blinded. GLP-1 is i.e. GLP-1 (7-36) amide

[4] = 1-hour food intake after IP GLP-1 with intra-arcuate exendin 9-39 in non-fasted rats; assay type: in vivo, rat; conditions: GLP-1 25 nmol/kg, exendin 9-39 20 nmoles/kg, FIG. 11
Protocol: GLP-1 i.e. GLP-1 (7-36) amide (25 nmol/kg) or saline (control) was administered parenterally to non-fasted rats prior to the onset of the dark phase. Exendin 9-39 (20 nmoles/kg) or saline (control) injected into the arcuate nucleus of non-fasted rats. Food intake one hour later was measured.

[5] = test system: non-fluorescent ARC neurons; assay: Recordings from adjacent non-fluorescent ARC neurons; assay type: cell-based, mouse; conditions: 13 cells tested

Substance: CTAP
- effect on the current induced by Met-Enk in POMC cells ([1]; CTAP 1 μM, Met-Enk 30 μM, n=3): completely prevented

Substance: D-Trp^8-γMSH
- increase in frequency of GABAergic IPSCs in POMC neurons ([1]; 7 nM, 3 of 4 POMC neurons): 280±90%
- hyperpolarization of POMC neurons ([1]; 7 nM, 9 of 15 POMC neurons): −5.5±2.4 mV

Substance: GLP-1 (7-36) amide (HAEGTFTSDVSSYLEGGAAKEFIAWLVKGR-NH2)
- food intake after ICV administration [2]: potently inhibits food intake
- Food intake from free buffet meal, mean ([3]; IV infusion 0.4 pmol/kg/min for 120 minutes (90 minutes pre-meal), 10 volunteers, saline 997): 950 kcal
- % reduction from saline ([3]; IV infusion 0.4 pmol/kg/min for 120 minutes, free buffet meal): 5%
- effect of IP GLP-1 on 1-hour food intake with exendin 9-39 in the arcuate nucleus [4]: not influenced by the presence of concomitant exendin 9-39

Substance: exendin 9-39
- effect on inhibition of food intake by ICV GLP-1 [2]: blocked

Substance: leptin: leptin, hormone applied to POMC cells in slice preparations
- effect on membrane potential of non-fluorescent ARC cells [5]: had no effect on 5 of 13 adjacent non-fluorescent cells tested (FIG. 3e), while it hyperpolarized 5 (FIG. 3f) and depolarized 3 other non-POMC neurons
- decrease in frequency of GABAergic IPSCs in POMC cells ([1]; 100 nM, in 5 out of 15 cells): 25%
- depolarization of POMC cells, mean±SEM ([1]; 100 nM, n=45): 9.7±1.2 mV
- time to depolarization of POMC cells ([1]; 0.1-100 nM): 2 to 10 min
- depolarization of POMC cells ([1]; 0.1-100 nM, 72 of 77 POMC cells): 3-30 mV

Substance: met-enkephalin
- time to hyperpolarization of POMC cells ([1]; 30 μM): 35 to 40 s
- hyperpolarization of the membrane potential of POMC cells ([1]; 30 μM, n=10, reversible): 10-20 mV

Substance: neuropeptide Y [NPY]
- hyperpolarization of POMC neurons, average ([1]; n=3): 9±6 mV

— patent US8058233B2, “Modification of feeding behavior using PYY and GLP-1” (Oregon Health and Science University, priority 2002, dated 2011)
